Laboratory results from patent US4727086A, “Certain anti-hypertensive 2,3-dihydrobenzofuran compounds” (Adir et Compagnie, priority 1985, dated 1988).

Columns and labels:
[1] = test system: coronary artery of the dog; assay: Contraction-inhibiting activity on the coronary artery of the dog (in vitro); type: cell-based; conditions: Canis lupus familiaris, 0.25 h, contraction induced by 100 mM potassium ions, reactivation with 10 and 20 mM calcium ions, 15-minute action, read-out: ED50 (dose capable of inhibiting 50% of the maximum contraction)
Experimental: Assessment of the Contraction-Inhibiting Activity on the Coronary Artery of the Dog
The inhibiting activity on contraction induced by calcium ions was assessed in vitro on the coronary artery of the dog according to the method described by Godfraind and Miller in Circ. Res. (1983) 52, No. 2, pp. 81-91. Contraction was induced by a solution containing 100 millimoles of potassium ions per liter. The compounds to be examined were then introduced in cumulative doses and after a 15-minute period of action the preparation was reactivated with solutions having a calcium ion concentration of 10 and 20 mM. The dose capable of inhibiting 50% (ED50) of the maximum contraction was assessed.

[2] = test system: mongrel dogs; assay: Haemodynamic effects in vivo in anaesthetised dogs
Experimental: Haemodynamic Effects In Vivo
The haemodynamic effects were assessed in mongrel dogs weighing from 25 to 30 kg which had been anaesthetised with sodium phenobarbital, had undergone a thoractomy at the 5th left intercostal space and carried electromagnetic rings at the level of the circumflex branch of the left coronary artery and at the level of the ascending aorta. The maximum bradycardic effect (E.B. max.), the mean coronary resistances (C.V.R.M.), the coronary output (C.B.F.M.), and the arterial pressure (P.A.) were measured after the intravenous injection of a dose of 300 μg/kg and 1000 μg/kg of the compounds of Examples 1 and 13.
Table 5 summarises the various results which are expressed as percentage increases (+%) or percentage decreases (-%) in the values in relation to those observed before treatment.

SMILES | IC50 [1] [µM] | other results
COc1cccc(N2CCN(CCCC3(c4ccccc4)COc4ccc(Cl)cc43)CC2)c1 (centres unmarked) [Example 2, 5-chloro-3-phenyl-3-[3-(4-(3-methoxyphenyl)-1-piperazinyl)-propyl]-2,3-dihydrobenzofuran] | 10 | 
COc1ccc2c(c1)C(CCCN(C)CCc1ccc(OC)c(OC)c1)(c1ccc(C)cc1)CO2 (centres unmarked) [Example 5, 5-methoxy-3-(4-methylphenyl)-3-[3-(N-(3,4-dimethoxyphenethyl)-N-methylamino)-propyl]-2,3-dihydrobenzofuran] | 26 | 
COc1ccc2c(c1)C(CCCN(C)C1Cc3cc(OC)c(OC)cc3C1)(c1ccccc1)CO2 (centres unmarked) [Example 6, 5-methoxy-3-phenyl-3-[3-(N-(5,6-dimethoxy-2-indanyl)-N-methylamino)-propyl]-2,3-dihydrobenzofuran] | 10 | 
COc1ccc2c(c1)C(CCCN1CCc3cc(OC)c(OC)cc3C1)(c1ccccc1)CO2 (centres unmarked) [Example 7, 5-methoxy-3-phenyl-3-[3-(6,7-dimethoxy-1,2,3,4-tetrahydro-2-isoquinolyl)-propyl]-2,3-dihydrobenzofuran] | 6.3 | 
COc1ccc2c(c1)C(CCCN1CCN(C)CC1)(c1ccccc1)CO2 (centres unmarked) [Example 9, 5-methoxy-3-phenyl-3-[3-(4-methyl-1-piperazinyl)-propyl]-2,3-dihydrobenzofuran] | 35 | 
CCN(CC)CCCC1(c2ccccc2)COc2ccc(OC)cc21 (centres unmarked) [Example 10, 5-methoxy-3-phenyl-3-[3-(N-diethylamino)-propyl]-2,3-dihydrobenzofuran] | 6.1 | 
COc1ccc(CCN(C)CCCC2(c3ccccc3)c3cc(OC)c(OC)cc3OC2O)cc1OC (centres unmarked) [Example 12, 2-hydroxy-5,6-dimethoxy-3-phenyl-3-[3-(N-(3,4-dimethoxyphenethyl)-N-methylamino)-propyl]-2,3-dihydrobenzofuran phosphate] | 8 | 
c1ccc(C2(CCCN3CCc4ccsc4C3)COc3ccccc32)cc1 (centres unmarked) [Example 14, 3-phenyl-3-[3-(1,2,6,7-tetrahydro-(2,3-c)-thieno-1-pyridinyl)-propyl]-2,3-dihydrobenzofuran] | 9 | 
c1ccc(C2(CCCN3CCOCC3)COc3ccccc32)cc1 (centres unmarked) [Example 15, 3-phenyl-3-[3-(4-morpholinyl)-propyl]-2,3-dihydrobenzofuran] | 50 | 
COc1cccc(N2CCN(CCCC3(c4ccccc4)COc4ccccc43)CC2)c1 (centres unmarked) [Example 16, 3-phenyl-3-[3-(4-(3-methoxyphenyl)-1-piperazinyl)-propyl]-2,3-dihydrobenzofuran] | 9 | 

Further lines, with some results ahead:

IC50 [1] [µM] | SMILES | other results
1.7 | COc1ccc2c(c1)C(CCCN(C)CCc1ccc(OC)c(OC)c1)(c1ccccc1)CO2.O=P(O)(O)O (centres unmarked) [Example 1, 5-methoxy-3-phenyl-3-[3-(N-(3,4-dimethoxyphenethyl)-N-methylamino)-propyl]-2,3-dihydrobenzofuran phosphate] | CBFM (coronary output), % change vs before treatment ([2]; 300 μg/kg intravenous): +51%; CRVM (mean coronary resistances), % change vs before treatment ([2]; 300 μg/kg intravenous): -39%; EB max (maximum bradycardic effect), % change vs before treatment ([2]; 300 μg/kg intravenous): -7%; PA (arterial pressure), % change vs before treatment ([2]; 300 μg/kg intravenous): -9%; CBFM (coronary output), % change vs before treatment ([2]; 1000 μg/kg intravenous): +85%; CRVM (mean coronary resistances), % change vs before treatment ([2]; 1000 μg/kg intravenous): -57%; EB max (maximum bradycardic effect), % change vs before treatment ([2]; 1000 μg/kg intravenous): -13%; PA (arterial pressure), % change vs before treatment ([2]; 1000 μg/kg intravenous): -21%
90 | COc1ccc(CCN(C)CCCC2(c3ccccc3)COc3cc(OC)c(OC)cc32)cc1OC (centres unmarked) [Example 3, 5,6-dimethoxy-3-phenyl-3-[3-(N-(3,4-dimethoxyphenethyl)-N-methylamino)-propyl]-2,3-dihydrobenzofuran] | 
30 | COc1ccc(CCN(C)CCCC2(c3ccccc3)COc3ccc(Cl)cc32)cc1OC (centres unmarked) [Example 4, 5-chloro-3-phenyl-3-[3-(N-(3,4-dimethoxyphenethyl)-N-methylamino)-propyl]-2,3-dihydrobenzofuran] | 
8.4 | COc1ccc2c(c1)C(CCCN(C)CCc1ccccc1)(c1ccccc1)CO2 (centres unmarked) [Example 8, 5-methoxy-3-phenyl-3-[3-(N-phenethyl-N-methylamino)-propyl]-2,3-dihydrobenzofuran] | 
6.2 | COc1ccc2c(c1)C(CCCN(C)CCc1ccc(OC)c(OC)c1)(c1ccccc1)C(O)O2 (centres unmarked) [Example 11, 2-Hydroxy-5-methoxy-3-phenyl-3-[3-(N-(3,4-dimethoxyphenethyl)-N-methylamino)-propyl]-2,3-dihydrobenzofuran phosphate] | 
4 | COc1ccc(CCN(C)CCCC2(c3ccccc3)COc3ccccc32)cc1OC.O=P(O)(O)O (centres unmarked) [Example 13, 3-phenyl-3-[3-(N-(3,4-dimethoxyphenethyl)-N-methylamino)-propyl]-2,3-dihydrobenzofuran phosphate] | CBFM (coronary output), % change vs before treatment ([2]; 300 μg/kg intravenous): +31%; CRVM (mean coronary resistances), % change vs before treatment ([2]; 300 μg/kg intravenous): -36%; EB max (maximum bradycardic effect), % change vs before treatment ([2]; 300 μg/kg intravenous): -8%; PA (arterial pressure), % change vs before treatment ([2]; 300 μg/kg intravenous): -16%; CBFM (coronary output), % change vs before treatment ([2]; 1000 μg/kg intravenous): +59%; CRVM (mean coronary resistances), % change vs before treatment ([2]; 1000 μg/kg intravenous): -60%; EB max (maximum bradycardic effect), % change vs before treatment ([2]; 1000 μg/kg intravenous): -10%; PA (arterial pressure), % change vs before treatment ([2]; 1000 μg/kg intravenous): -31%
